Measurements as given in patent US20220306630A1, “AGONISTS OF ROR GAMMAt” (BRISTOL-MYERS SQUIBB COMPANY, priority 2019, published 2022).

Molecular target: T1, RORgT (Homo sapiens, UniProt P51449)
T1 construct: Gal4 (fusion partner); expressed in transfected cells; host or cells: engineered Jurkat cells (Jurkat pEx/Gal/hRORγ CLBD/HYG pG5luc/blast)
T1 sequence (P51449 267-516): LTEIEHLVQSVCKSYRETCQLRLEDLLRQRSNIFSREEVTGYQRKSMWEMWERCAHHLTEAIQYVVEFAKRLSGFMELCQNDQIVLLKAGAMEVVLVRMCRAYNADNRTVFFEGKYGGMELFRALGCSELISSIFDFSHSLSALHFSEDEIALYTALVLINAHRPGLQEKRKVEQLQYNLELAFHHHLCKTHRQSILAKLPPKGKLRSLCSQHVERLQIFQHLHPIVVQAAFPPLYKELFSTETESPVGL
Test: RORgT Gal4 Luciferase Reporter Gene Assay
Format: cell-based
Settings: engineered Jurkat cells overexpressing RORgT (LBD or full length) with Gal4 Luc reporter; 18 hours at 37° C.; 40 μM to 0.67 nM; read-out: RORg_GAL4 EC50
Method in brief: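 Cells exposed to compound 18 hours at 37° C, then lysed for luciferase luminescence. Inhibition of constitutive activity expressed as percent reduction of signal window relative to a control compound.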

SMILES	EC50
COc1ccc(Oc2c(Cl)cc(NC(=O)CN3CC[C@H](NS(=O)(=O)C4CC4)C3)cc2Cl)cc1C(C)C [Example 170]	370 nM
COc1ccc(Oc2c(Cl)cc(NC(=O)N3CCOCC3)cc2Cl)cc1C(C)C [Example 236]	597 nM
COc1ccc(Oc2c(Cl)cc(NC(=O)c3c[nH]c4ncccc34)cc2Cl)cc1C(C)C [Example 349]	1370 nM
COc1ccc(Oc2c(Cl)ccc(C(=O)NCC3CCCC(O)C3)c2Cl)cc1C(C)C (stereo not drawn) [Example 226]	286 nM
COCCC(=O)Nc1cc(Cl)c(Oc2ccc(OC)c(C(C)C)c2)c(Cl)c1 [Example 300]	591 nM
CC(C)c1cc(F)cc(Oc2c(Cl)ccc(C(=O)N3CCC4(CC3)CN(S(=O)(=O)C3CC3)C4)c2Cl)c1 [Example 125]	548 nM
COc1ccc(Oc2c(Cl)cc(NC(=O)Cc3ccc(N)nc3)cc2Cl)cc1C(C)C [Example 2, 2-(6-aminopyridin-3-yl)-N-(3,5-dichloro-4-(3-isopropyl-4-methoxyphenoxy)phenyl)acetamide]	152 nM
CC(C)c1cc(F)cc(Oc2c(Cl)cc(NC(=O)CN3CCC(S(C)(=O)=O)CC3)cc2Cl)c1 [Example 331]	116 nM
COc1ccc(Oc2c(Cl)ccc(CNC(=O)c3ccc(S(C)(=O)=O)cc3Cl)c2Cl)cc1C(C)C [Example 62]	96 nM
COc1ccc(Oc2c(Cl)cc(N3CC(CNS(C)(=O)=O)OC3=O)cc2Cl)cc1C(C)C (stereo not drawn) [Example 254]	655 nM
COc1ccc(Oc2c(Cl)ccc(CNC(=O)CC3CCN(S(C)(=O)=O)CC3)c2Cl)cc1C(C)C [Example 222]	225 nM
COc1ccc(Oc2c(Cl)ccc(C(=O)N3CCCCC3)c2Cl)cc1C(C)C [Example 184]	246 nM
COc1ccc(Oc2c(Cl)ccc(C(=O)NCC3CCS(=O)(=O)CC3)c2Cl)cc1C(C)C [Example 100]	117 nM
COc1ccc(Oc2c(Cl)cc(NC(=O)CN(C)C)cc2Cl)cc1C(C)C [Example 280]	656 nM
COc1ccc(Oc2c(Cl)ccc(C(=O)NCc3ccccn3)c2Cl)cc1C(C)C [Example 194]	6460 nM
COc1ccc(Oc2c(Cl)cc(NC(=O)CCC(C)C)cc2Cl)cc1C(C)C [Example 290]	524 nM
COc1ccc(Oc2c(F)cc(NC(=O)Cc3cccnc3)cc2F)cc1CC(C)C [Example 312]	1440 nM
COc1ccc(Oc2c(Cl)ccc(C(=O)NCCc3nc4ccccc4s3)c2Cl)cc1C(C)C [Example 178]	336 nM
COc1ccc(Oc2c(Cl)ccc(C#N)c2Cl)cc1C(C)C [Example 18, 2,4-dichloro-3-(3-isopropyl-4-methoxyphenoxy)benzonitrile]	1870 nM

SMILES	EC50
CCS(=O)(=O)N1CCC[C@H](CC(=O)Nc2cc(Cl)c(Oc3ccc(OC)c(C(C)C)c3)c(Cl)c2)C1 [Example 323]	92 nM
COc1ccc(Oc2c(Cl)cc(NC(=O)Cc3cncn3C)cc2Cl)cc1C(C)C [Example 248]	2250 nM
CC(C)c1cc(F)cc(Oc2c(Cl)ccc(C(=O)NCC3CCN(S(=O)(=O)C(C)C)CC3)c2Cl)c1 [Example 116]	350 nM
COc1ccc(Oc2c(Cl)cc(N)cc2Cl)cc1C(C)C [Example 350]	2050 nM
COc1ccc(Oc2c(Cl)ccc(C(=O)NCC3CCOCC3)c2Cl)cc1C(C)C [Example 216]	813 nM
COc1ccc(Oc2c(Cl)ccc(CNC(=O)CCC3CCN(S(C)(=O)=O)CC3)c2Cl)cc1C(C)C [Example 224]	732 nM
COc1ccc(Oc2c(Cl)ccc(C(=O)NCCc3cccnc3)c2Cl)cc1C(C)C [Example 76]	922 nM
COc1ccc(Oc2c(Cl)cc3[nH]c(Cc4ccccc4)nc3c2Cl)cc1C(C)C [Example 308]	1280 nM
COc1ccc(Oc2c(Cl)ccc(C(=O)NCCc3ccccc3Cl)c2Cl)cc1C(C)C [Example 199]	3890 nM
COc1ccc(Oc2c(Cl)cc(NC(=O)C(O)c3cccnc3)cc2Cl)cc1C(C)C (stereo not drawn) [Example 247]	114 nM
COc1ccc(Oc2c(Cl)ccc(C(=O)NCCNC(C)=O)c2Cl)cc1C(C)C [Example 221]	560 nM
COc1ccc(Oc2c(Cl)ccc(C(=O)NCc3ccccc3Cl)c2Cl)cc1C(C)C [Example 200]	330 nM
COc1ncc(Oc2c(Cl)ccc(C(=O)N3CCC4(CC3)CN(S(C)(=O)=O)C4)c2Cl)cc1C(C)(C)F [Example 30, (2,4-dichloro-3-((5-(2-fluoropropan-2-yl)-6-methoxypyridin-3-yl)oxy)phenyl)(2-(methylsulfonyl)-2,7-diazaspiro[3.5]nonan-7-yl)methanone]	216 nM
COc1ccc(Oc2c(Cl)ccc(C(=O)NCc3cc(C)no3)c2Cl)cc1C(C)C [Example 205]	564 nM
COc1ccc(Oc2c(Cl)ccc(C(=O)N3CCc4cc(N)ccc4C3)c2Cl)cc1C(C)C [Example 108]	766 nM
COc1ccc(Oc2c(Cl)ccc(C(=O)NCC3CN(S(C)(=O)=O)C3)c2Cl)cc1C(C)C [Example 91]	88 nM
COc1ccc(Oc2c(Cl)ccc(C(=O)N3CCCC3)c2Cl)cc1C(C)C [Example 210]	105 nM
COc1ccc(Oc2c(Cl)cc(NC(=O)C3CCCCC3)cc2Cl)cc1C(C)C [Example 287]	132 nM

Stronger by EC50, values ahead:

EC50	SMILES
83 nM	COc1ccc(Oc2c(Cl)ccc(C(=O)N3CCC(c4ccccc4)CC3)c2Cl)cc1C(C)C [Example 176]
81 nM	COc1ccc(Oc2c(Cl)cc(NC(=O)CCn3cc(S(C)(=O)=O)cn3)cc2Cl)cc1C(C)C [Example 9, N-(3,5-dichloro-4-(3-isopropyl-4-methoxyphenoxy)phenyl)-3-(4-(methylsulfonyl)-1H-pyrazol-1-yl)propanamide]
80 nM	CCS(=O)(=O)N[C@H]1CCN(CC(=O)Nc2cc(Cl)c(Oc3ccc(OC)c(C(C)C)c3)c(Cl)c2)C1 [Example 164]
75 nM	COc1ccc(Oc2c(Cl)cc(NC(=O)Cc3ccc(C)nc3)cc2Cl)cc1C(C)C [Example 344]
75 nM	CCOc1ccc(Oc2c(Cl)cc(NC(=O)Cc3cccnc3)cc2Cl)cc1C(C)C [Example 50, N-(3,5-dichloro-4-(4-ethoxy-3-isopropylphenoxy)phenyl)-2-(pyridin-3-yl)acetamide]
69 nM	COc1ccc(Oc2c(Cl)ccc(C(=O)N3CCN(S(C)(=O)=O)CC3)c2Cl)cc1C(C)C [Example 65]
45 nM	COc1ncc(Oc2c(Cl)cc(NC(=O)CC3CCN(S(=O)(=O)C(C)C)CC3)cc2Cl)cc1C(C)C [Example 24, N-(3,5-dichloro-4-((5-isopropyl-6-methoxypyridin-3-yl)oxy)phenyl)-2-(1-(isopropylsulfonyl)piperidin-4-yl)acetamide]
40 nM	COc1ccc(Oc2c(Cl)cc(NC(=O)Cc3cncc(S(C)(=O)=O)c3)cc2Cl)cc1C(C)C [Example 242]
40 nM	CC(C)(F)c1cc(F)cc(Oc2c(Cl)cc(NC(=O)Cc3cccc(S(C)(=O)=O)c3)cc2Cl)c1 [Example 53, N-(3,5-dichloro-4-(3-fluoro-5-(2-fluoropropan-2-yl)phenoxy)phenyl)-2-(3-(methylsulfonyl)phenyl)acetamide]
35 nM	COc1ccc(Oc2c(Cl)ccc(C(=O)N3CCC4(CCN(S(C)(=O)=O)CC4)C3)c2Cl)cc1C(C)C [Example 107]
22 nM	CC(C)c1cc(F)cc(Oc2c(Cl)cc(NC(=O)CC3CCN(S(N)(=O)=O)CC3)cc2Cl)c1 [Example 270]
19 nM	CC(C)c1cc(F)cc(Oc2c(Cl)cc(NC(=O)Cc3cccc(S(C)(=O)=O)c3)cc2Cl)c1 [Example 328]
19 nM	COc1ccc(Oc2c(Cl)cc(NC(=O)CC3CCN(S(C)(=O)=O)CC3)cc2Cl)cc1C(C)(C)C [Example 255]
16 nM	CC(c1cc(F)cc(Oc2c(Cl)ccc(C(=O)NCc3ccc(S(N)(=O)=O)cc3)c2Cl)c1)C(F)(F)F (stereo not drawn) [Example 355]
16 nM	COc1ccc(Oc2c(Cl)ccc(CNS(=O)(=O)C3CCN(S(C)(=O)=O)CC3)c2Cl)cc1C(C)C [Example 57]
15 nM	COc1ccc(Oc2c(Cl)ccc(C(=O)N3CC4(CCN(S(C)(=O)=O)CC4)C3)c2Cl)cc1C(C)C [Example 68]
14 nM	COc1ncc(Oc2c(Cl)ccc(C(=O)NC(C)c3ccc(S(C)(=O)=O)cc3)c2Cl)cc1C(C)C (stereo not drawn) [Example 137]
13 nM	COc1ccc(Oc2c(Cl)ccc(CNC(=O)CN3CCN(S(N)(=O)=O)CC3)c2Cl)cc1C(C)C [Example 90]
12 nM	CC1(c2cc(F)cc(Oc3c(Cl)cc(NC(=O)CC4CCN(C(=O)C(F)(F)F)CC4)cc3Cl)c2)CC1 [Example 275]
11 nM	COc1ncc(Oc2c(Cl)ccc(C(=O)NC(C)c3ccc(S(C)(=O)=O)cc3)c2Cl)cc1C(C)C (stereo not drawn) [Example 135]
11 nM	COc1ncc(Oc2c(Cl)cc(NC(=O)CC3CCN(S(=O)(=O)C4CC4)CC3)cc2Cl)cc1C(C)C [Example 119]
6.3 nM	CC(C)c1cc(Oc2c(Cl)ccc(C(=O)N3CCC4(CC3)CN(S(C)(=O)=O)C4)c2Cl)ccc1F [Example 132]
5.8 nM	CC(C)(F)c1cc(Oc2c(Cl)cc(NC(=O)CC3CCN(S(C)(=O)=O)CC3)cc2Cl)cnc1OC(F)F [Example 29, N-(3,5-dichloro-4-((6-(difluoromethoxy)-5-(2-fluoropropan-2-yl)pyridin-3-yl)oxy)phenyl)-2-(1-(methylsulfonyl)piperidin-4-yl)acetamide]
3.2 nM	COc1ncc(Oc2c(Cl)cc(NC(=O)CC3CCN(S(C)(=O)=O)CC3)cc2Cl)cc1C(C)C(F)(F)F (stereo not drawn) [Example 134]
2.5 nM	COc1ncc(Oc2c(Cl)ccc(C(=O)NCc3ccc(S(C)(=O)=O)cc3)c2Cl)cc1C(C)(C)F [Example 152]
1.8 nM	CC(C)(F)c1cc(F)cc(Oc2c(Cl)ccc(C(=O)NCc3ccc(S(C)(=O)=O)cc3)c2Cl)c1 [Example 338]
